Measurements taken from ChEMBL document CHEMBL4732235, “Design, synthesis, and evaluation of transition-state analogs as inhibitors of the bacterial quorum sensing autoinducer synthase CepI” (Bioorg Med Chem Lett, 2021).
Activity calls are given as the source filed them. The calls are words filed in the database; no cut-off is given here.

Legend:
[1] = test system: Burkholderia cenocepacia; experiment: Binding affinity to Burkholderia cenocepacia synthase CepI assessed as stabilization of protein in presence of trypsin at 50 uM by standard colorimetric trypsin assay
[2] = test system: Burkholderia cenocepacia; experiment: Inhibition of Burkholderia cenocepacia synthase CepI assessed as liberation of ACP thiol using SAM as substrate at 100 uM by DCPIP method
[3] = Inhibition of Burkholderia cenocepacia synthase CepI assessed as liberation of ACP thiol using SAM as substrate by DCPIP method

Compound | Activity [1] | inhibition [2] | IC50 [3] [µM]
CCCCCCCC(=O)N[C@H]1C[C@@H](CSC[C@H]2O[C@@H](n3cnc4c(N)ncnc43)[C@H](O)[C@@H]2O)OC1=O | Active | Active | 1
CCCCCCCC(=O)N[C@@H]1C[C@H](CSC[C@H]2O[C@@H](n3cnc4c(N)ncnc43)[C@H](O)[C@@H]2O)OC1=O |  | Active | 100
